From patent publication US6355799B1, “Substituted benzene compounds, process for their preparation, and herbicidal and defoliant compositions containing them” (ISK Americas Incorporated, priority 1997, dated 2002)

Legend:
Format in all cases: in vivo
[1] = tested on: redroot pigweed (Amaranthus retroflexus, AMARE); assay: Pre-emerge test, greenhouse herbicide activity screening; settings: pre-emerge, rated 14 days after application, 0 = no damage, 100 = complete death
Summary of the method: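 Plants grown in 10 cm pots of sandy loam mix received acetone-dissolved compounds through a moving flat-fan nozzle. Doses ranged from 15 to 1000 g ai/ha. Pre-emerge pots were seeded one day earlier, post-emerge pots 8–21 days earlier. Fourteen days on, each pot was graded 0–100 for damage.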

[2] = tested on: sicklepod (Cassia obtusifolia, CASOB); assay: as above; settings: pre-emerge, rated 14 days after application, 0 = no damage, 100 = complete death
Summary of the method: (§1)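 Sandy loam pots; pre-emerge: sown 1 d pre-spray, surface-watered after, then bottom-watered. Post-emerge: sown 8–21 d before, 2–3 leaf stage, + 0.25% v/v NIS, bottom-watered. Acetone, 187 l/ha track spray, 15–1000 g ai/ha. 0–100 injury score, day 14.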

[3] = tested on: ivyleaf morningglory (Ipomoea hederacea, IPOHE); assay: as above; settings: pre-emerge, rated 14 days after application, 0 = no damage, 100 = complete death
Summary of the method: as §1

[4] = tested on: velvetleaf (Abutilon theophrasti, ABUTH); assay: as above; settings: pre-emerge, rated 14 days after application, 0 = no damage, 100 = complete death
Summary of the method: as §1

[5] = tested on: green foxtail (Setaria viridis, SETVI); assay: as above; settings: pre-emerge, rated 14 days after application, 0 = no damage, 100 = complete death
Summary of the method: as §1

[6] = tested on: johnsongrass (Sorghum halepense, SORHA); assay: as above; settings: pre-emerge, rated 14 days after application, 0 = no damage, 100 = complete death
Summary of the method: as §1

[7] = tested on: common ragweed (Ambrosia artemisizfolia L., AMBEL); assay: as above; settings: pre-emerge, rated 14 days after application, 0 = no damage, 100 = complete death
Summary of the method: as §1

[8] = tested on: lambsquarters (Chenopodium album, CHEAL); assay: as above; settings: pre-emerge, rated 14 days after application, 0 = no damage, 100 = complete death
Summary of the method: as §1

[9] = tested on: large crabgrass (Digitaria sanguinalis, DIGSA); assay: as above; settings: pre-emerge, rated 14 days after application, 0 = no damage, 100 = complete death
Summary of the method: as §1

[10] = tested on: barnyardgrass (Echinochloa crus-galli, ECHCG); assay: as above; settings: pre-emerge, rated 14 days after application, 0 = no damage, 100 = complete death
Summary of the method: as §1

[11] = tested on: upland rice (Oryza sp., var. Tebonnet, RICE); assay: Pre-emerge test, crop safety; settings: pre-emerge, rated 14 days after application, 0 = no damage, 100 = complete death
Summary of the method: (§2)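 Applied at 15–1000 g ai/ha from acetone in 187 l/ha spray volume. Post-emergence applications included 0.25% v/v non-ionic surfactant and reached plants sown 8–21 days before. Pre-emergence applications were incorporated by surface watering. Efficacy or crop damage was rated on a 0–100 scale after 14 days.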

[12] = tested on: field corn (Zea mays L., var. Dekalb 535, CORN); assay: Pre-emerge test, crop safety; settings: pre-emerge, rated 14 days after application, 0 = no damage, 100 = complete death
Summary of the method: as §2

[13] = tested on: sicklepod (Cassia obtusifolia, CASOB); assay: Post-emerge test, greenhouse herbicide activity screening; settings: phytotoxicity rating 0-100 (0 no damage, 100 complete death), 14 days after application
Summary of the method: (§3)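 Herbicidal damage is scored 0 (none) to 100 (complete plant death) two weeks after a simulated field spray. Rates span 15–1000 g ai/ha, delivered in acetone at 187 l/ha. For post-emergence treatments, plants have 2–3 leaves and the spray carries 0.25% v/v non-ionic surfactant.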

[14] = tested on: ivyleaf morningglory (Ipomoea hederacea, IPOHE); assay: as above; settings: phytotoxicity rating 0-100 (0 no damage, 100 complete death), 14 days after application
Summary of the method: as §3

[15] = tested on: velvetleaf (Abutilon theophrasti, ABUTH); assay: as above; settings: 63 g ai/ha; phytotoxicity rating 0-100 (0 no damage, 100 complete death), 14 days after application
Summary of the method: as §3

[16] = tested on: green foxtail (Setaria viridis, SETVI); assay: as above; settings: phytotoxicity rating 0-100 (0 no damage, 100 complete death), 14 days after application
Summary of the method: as §3

[17] = tested on: redroot pigweed (Amaranthus retroflexus, AMARE); assay: as above; settings: phytotoxicity rating 0-100 (0 no damage, 100 complete death), 14 days after application
Summary of the method: as §3

[18] = tested on: johnsongrass (Sorghum halepense, SORHA); assay: as above; settings: phytotoxicity rating 0-100 (0 no damage, 100 complete death), 14 days after application
Summary of the method: as §3

[19] = tested on: common ragweed (Ambrosia artemisizfolia L., AMBEL); assay: as above; settings: phytotoxicity rating 0-100 (0 no damage, 100 complete death), 14 days after application
Summary of the method: as §3

[20] = tested on: lambsquarters (Chenopodium album, CHEAL); assay: as above; settings: phytotoxicity rating 0-100 (0 no damage, 100 complete death), 14 days after application
Summary of the method: as §3

[21] = tested on: large crabgrass (Digitaria sanguinalis, DIGSA); assay: as above; settings: phytotoxicity rating 0-100 (0 no damage, 100 complete death), 14 days after application
Summary of the method: as §3

[22] = tested on: barnyardgrass (Echinochloa crus-galli, ECHCG); assay: as above; settings: phytotoxicity rating 0-100 (0 no damage, 100 complete death), 14 days after application
Summary of the method: as §3

[23] = tested on: upland rice (Oryza sp., var. Tebonnet, RICE); assay: Post-emerge test, crop safety; settings: phytotoxicity rating 0-100 (0 no damage, 100 complete death), 14 days after application
Summary of the method: as §1

[24] = tested on: field corn (Zea mays L., var. Dekalb 535, CORN); assay: Post-emerge test, crop safety; settings: phytotoxicity rating 0-100 (0 no damage, 100 complete death), 14 days after application
Summary of the method: as §1

COc1c(Cl)cc(F)c(-n2c(=O)cc(C(F)(F)F)n(C)c2=O)c1N1CCCC1 [Compound 1-32]
Pre-emerge Herbicidal Activity AMARE (phytotoxicity rating, scale 0-100) ([1]; 63 g ai/ha): 0 | Pre-emerge Herbicidal Activity AMARE (phytotoxicity rating, scale 0-100) ([1]; 250 g ai/ha): 100 | Pre-emerge Herbicidal Activity CASOB (phytotoxicity rating, scale 0-100) ([2]; 63 g ai/ha): 40 | Pre-emerge Herbicidal Activity CASOB (phytotoxicity rating, scale 0-100) ([2]; 250 g ai/ha): 40 | Pre-emerge Herbicidal Activity IPOHE (phytotoxicity rating, scale 0-100) ([3]; 63 g ai/ha): 0 | Pre-emerge Herbicidal Activity IPOHE (phytotoxicity rating, scale 0-100) ([3]; 250 g ai/ha): 50 | Pre-emerge Herbicidal Activity ABUTH (phytotoxicity rating, scale 0-100) ([4]; 63 g ai/ha): 90 | Pre-emerge Herbicidal Activity ABUTH (phytotoxicity rating, scale 0-100) ([4]; 250 g ai/ha): 100 | Pre-emerge Herbicidal Activity SETVI (phytotoxicity rating, scale 0-100) ([5]; 63 g ai/ha): 0 | Pre-emerge Herbicidal Activity SETVI (phytotoxicity rating, scale 0-100) ([5]; 250 g ai/ha): 100 | Pre-emerge Herbicidal Activity SORHA (phytotoxicity rating, scale 0-100) ([6]; 63 g ai/ha): 0 | Pre-emerge Herbicidal Activity SORHA (phytotoxicity rating, scale 0-100) ([6]; 250 g ai/ha): 30 | Pre-emerge Herbicidal Activity AMBEL (phytotoxicity rating, scale 0-100) ([7]; 63 g ai/ha): 0 | Pre-emerge Herbicidal Activity AMBEL (phytotoxicity rating, scale 0-100) ([7]; 250 g ai/ha): 50 | Pre-emerge Herbicidal Activity CHEAL (phytotoxicity rating, scale 0-100) ([8]; 63 g ai/ha): 90 | Pre-emerge Herbicidal Activity CHEAL (phytotoxicity rating, scale 0-100) ([8]; 250 g ai/ha): 100 | Pre-emerge Herbicidal Activity DIGSA (phytotoxicity rating, scale 0-100) ([9]; 63 g ai/ha): 0 | Pre-emerge Herbicidal Activity DIGSA (phytotoxicity rating, scale 0-100) ([9]; 250 g ai/ha): 100 | Pre-emerge Herbicidal Activity ECHCG (phytotoxicity rating, scale 0-100) ([10]; 63 g ai/ha): 0 | Pre-emerge Herbicidal Activity ECHCG (phytotoxicity rating, scale 0-100) ([10]; 250 g ai/ha): 95 | Pre-emerge crop damage RICE (phytotoxicity rating, scale 0-100) ([11]; 63 g ai/ha): 20 | Pre-emerge crop damage RICE (phytotoxicity rating, scale 0-100) ([11]; 250 g ai/ha): 40 | Pre-emerge crop damage CORN (phytotoxicity rating, scale 0-100) ([12]; 63 g ai/ha): 0 | Pre-emerge crop damage CORN (phytotoxicity rating, scale 0-100) ([12]; 250 g ai/ha): 0 | Post-emerge Herbicidal Activity CASOB ([13]; 63 g ai/ha): 0 | Post-emerge Herbicidal Activity CASOB ([13]; 250 g ai/ha): 0 | Post-emerge Herbicidal Activity IPOHE ([14]; 63 g ai/ha): 0 | Post-emerge Herbicidal Activity IPOHE ([14]; 250 g ai/ha): 70 | Post-emerge Herbicidal Activity ABUTH [15]: 30 | Post-emerge Herbicidal Activity SETVI ([16]; 63 g ai/ha): 0 | Post-emerge Herbicidal Activity SETVI ([16]; 250 g ai/ha): 0 | Post-emerge Herbicidal Activity AMARE ([17]; 63 g ai/ha): 10 | Post-emerge Herbicidal Activity AMARE ([17]; 250 g ai/ha): 30 | Post-emerge Herbicidal Activity SORHA ([18]; 63 g ai/ha): 0 | Post-emerge Herbicidal Activity SORHA ([18]; 250 g ai/ha): 0 | Post-emerge Herbicidal Activity AMBEL ([19]; 63 g ai/ha): 0 | Post-emerge Herbicidal Activity AMBEL ([19]; 250 g ai/ha): 30 | Post-emerge Herbicidal Activity CHEAL ([20]; 63 g ai/ha): 0 | Post-emerge Herbicidal Activity CHEAL ([20]; 250 g ai/ha): 60 | Post-emerge Herbicidal Activity DIGSA ([21]; 63 g ai/ha): 0 | Post-emerge Herbicidal Activity DIGSA ([21]; 250 g ai/ha): 0 | Post-emerge Herbicidal Activity ECHCG ([22]; 63 g ai/ha): 0 | Post-emerge Herbicidal Activity ECHCG ([22]; 250 g ai/ha): 0 | Post-emerge Herbicidal Activity RICE (crop damage) ([23]; 63 g ai/ha): 0 | Post-emerge Herbicidal Activity RICE (crop damage) ([23]; 250 g ai/ha): 0 | Post-emerge Herbicidal Activity CORN (crop damage) ([24]; 63 g ai/ha): 0 | Post-emerge Herbicidal Activity CORN (crop damage) ([24]; 250 g ai/ha): 0
